Among the data in patent publication US10577373B2, “TYK2 inhibitors and uses thereof” (Nimbus Lakshmi, Inc., priority 2017, dated 2020) are IC50 values, retold here.

In general, IC50 refers to the midpoint of a concentration-inhibition curve.

Each structure is given as a SMILES string. Read-outs that look alike come from different tables or passages of the source. Where only a bound is given, the exact number is not on record here.

The test system of test [1] is GM-CSF induced STAT5 phosphorylation mediated by the JAK2/JAK2 homdimeric complex. Briefly: GM-CSF Induced pSTAT5 in Human PBMC. Particulars: GM-CSF 5 ng/mL for 20 minutes, pSTAT5.
Source text: Human PBMC are isolated from buffy coat and are stored frozen for assays as needed.
Test [2] relates to IL-12 induced STAT4 phophorylation mediated by Tyk2/JAK2 (heterodimeric complex). Nature of the test: IL-12 Induced pSTAT4 in Human PBMC. Type of test: cell-based. Particulars: 1.7 ng/mL IL-12. The text has this: The IL-12 Induced pSTAT4 assay evaluates the inhibition of IL-12 induced STAT4 phophorylation mediated by Tyk2/JAK2 (heterodimeric complex).
Setting [3] is: Homo sapiens, PBMC, 20 min, read-out: PBMC_GMCSF_pSTAT5 IC50, human PBMC.

For `CNc1cc(Nc2cccn(-c3nc(C)co3)c2=O)nc2c(C(=O)NC3CCC3)cnn12` [I-386], the figures for the half-maximal inhibitory concentration (IC50) in test [1] (setting [3]) and in test [2] were greater than 50000 nM and less than 100 nM, respectively.
With `CNc1cc(Nc2cc(Cl)cn(-c3cnn(C4CC4)c3C)c2=O)nc2c(C(=O)N[C@H]3C[C@H]3F)cnn12` [I-326], the IC50 in test [1] (setting [3]) was greater than 50000 nM; in test [2] it was less than 100 nM.
Turning to `CNc1cc(Nc2cccc(N3CCOCC3)n2)nc2c(C(=O)N[C@H]3C[C@H]3F)cnn12` [I-590], the IC50 was greater than 12500 nM in test [1] (setting [3]) and less than 100 nM in test [2].
As for `CNc1cc(Nc2cccn(-c3cnco3)c2=O)nc2c(C(=O)N[C@@H]3C[C@@H]3F)cnn12` [I-762], the half-inhibitory concentration (IC50) in test [1] (setting [3]) was greater than 2500 nM; in test [2], less than 100 nM.
Regarding `CNc1cc(Nc2cccc3ocnc23)nc2c(C(=O)N[C@H]3COC[C@H]3O)cnn12` [I-834], the IC50 in test [1] (setting [3]) was greater than 50000 nM; in test [2], 100 to 500 nM.
Turning to `CNc1cc(-c2cn(C(C)C)c3ncc(C)cc23)nc2c(C(N)=O)cnn12` [I-255], the half-maximal inhibitory concentration (IC50) is greater than 50000 nM in test [1] (setting [3]) and less than 100 nM in test [2].
With `CNc1cc(Nc2cccnc2OC(F)F)nc2c(C(=O)NC3CC3)cnn12` [I-154], the IC50 is greater than 12500 nM in test [1] (setting [3]) and less than 100 nM in test [2].
As to `CNc1cc(Nc2cc(F)cn(-c3ccc(C)nn3)c2=O)nc2c(C(=O)N[C@H]3C[C@H]3F)cnn12` [I-198], the IC50 in test [1] (setting [3]) was greater than 2500 nM; in test [2], less than 100 nM.
Regarding `CNc1cc(Nc2cccn([C@H]3CC[C@H](OC)CC3)c2=O)nc2c(C(=O)NC[C@H](C)CO)cnn12` [I-829], the IC50 is greater than 50000 nM in test [1] (setting [3]) and less than 100 nM in test [2].
Regarding `CNc1cc(Nc2cccn(-c3cc(C)n(C)n3)c2=O)nc2c(C(=O)NC3CC3)cnn12` [I-138], the IC50 in test [1] (setting [3]) was greater than 50000 nM; in test [2], less than 100 nM.
Consider `CNc1cc(Nc2cccn(-c3ncc(C)s3)c2=O)nc2c(C(=O)NC3CC3)cnn12` [I-261, N-cyclopropyl-7-(methylamino)-5-((1-(5-methylthiazol-2-yl)-2-oxo-1,2-dihydropyridin-3-yl)amino)pyrazolo[1,5-a]pyrimidine-3-carboxamide], for which the IC50 was greater than 2500 nM in test [1] (setting [3]) and less than 100 nM in test [2].
For `CNc1cc(Nc2cc(Cl)cn(-c3ccc(C)nn3)c2=O)nc2c(C(=O)N[C@H]3C[C@H]3F)cnn12` [I-164] the same measures were greater than 50000 nM and less than 100 nM.
For `CNc1cc(Nc2cccn(-c3cc(C)n(C)n3)c2=O)nc2c(C(=O)N[C@H]3C[C@H]3F)cnn12` [I-137] the same measures were greater than 50000 nM and less than 100 nM.
For `CNc1cc(Nc2cc(F)cn(-c3ccccn3)c2=O)nc2c(C(=O)N[C@H]3C[C@H]3F)cnn12` [I-194] the same measures were greater than 12500 nM and less than 100 nM.
Regarding `CNc1cc(Nc2cccn(-c3cc(C)n(C)n3)c2=O)nc2c(C(=O)NC3CCC3)cnn12` [I-136], the IC50 was greater than 2500 nM in test [1] (setting [3]) and less than 100 nM in test [2].
As for `CNc1cc(Nc2cccn(-c3ccn(C4CC4)n3)c2=O)nc2c(C(=O)N[C@@H]3C[C@@H]3F)cnn12` (stereo in doubt) [I-106, 5-((1-(1-cyclopropyl-1H-pyrazol-3-yl)-2-oxo-1,2-dihydropyridin-3-yl)amino)-N-((1R,2S)-2-fluorocyclopropyl)-7-(methylamino)pyrazolo[1,5-a]pyrimidine-3-carboxamide], the IC50 was greater than 12500 nM in test [1] (setting [3]) and less than 100 nM in test [2].
Turning to `CNc1cc(Nc2cccn(-c3ccc(F)cc3)c2=O)nc2c(C(=O)N[C@H]3C[C@H]3F)cnn12` [I-132], the IC50 in test [1] (setting [3]) is greater than 2500 nM; in test [2] it was less than 100 nM.
For `CNc1cc(Nc2cccn(-c3cnc(C)o3)c2=O)nc2c(C(=O)N[C@H]3C[C@H]3F)cnn12` [I-718] the same measures were greater than 12500 nM and less than 100 nM.
`CNc1cc(-c2cn(CCN3CCOCC3)c3ncccc23)nc2c(C(=O)N[C@H]3CC[C@@H]3OC)cnn12` [I-886]: the IC50 in test [1] (setting [3]) was greater than 300 nM; in test [2], less than 100 nM.
For `CNC(=O)c1occc1Nc1cc(NC)n2ncc(C(=O)NC3CC3)c2n1` [I-887] the same measures were greater than 50000 nM and less than 100 nM.
For `CNc1cc(Nc2cccnc2OC)nc2c(C(=O)NO)cnn12` [I-710, N-hydroxy-5-((2-methoxypyridin-3-yl)amino)-7-(methylamino)pyrazolo[1,5-a]pyrimidine-3-carboxamide], the IC50 in test [1] (setting [3]) was greater than 50000 nM; in test [2], 100 to 500 nM.
With `CNc1cc(-c2cn(C(C)C)c3ncccc23)nc2c(C(=O)NC3CC3)cnn12` [I-223], the half-inhibitory concentration (IC50) in test [1] (setting [3]) is greater than 12500 nM; in test [2], less than 100 nM.
With `CNc1cc(-c2cn(C(C)C)c3ncccc23)nc2c(C(=O)NC3CCC3)cnn12` [I-224], the IC50 is greater than 50000 nM in test [1] (setting [3]) and less than 100 nM in test [2].
Take `CNc1cc(Nc2cccn(-c3ncco3)c2=O)nc2c(C(=O)NC3CC3)cnn12` [I-715]: the IC50 in test [1] (setting [3]) is greater than 2500 nM; in test [2], less than 100 nM.
`CNc1cc(Nc2cc(Cl)cn(-c3ncc(C)s3)c2=O)nc2c(C(=O)N[C@H]3C[C@H]3F)cnn12` [I-323]: the concentration for half-maximal inhibition (IC50) in test [1] (setting [3]) is greater than 2500 nM; in test [2], less than 100 nM.
On to `CNc1cc(Nc2cccnc2OC2CC2)nc2c(C(=O)NC3CC3)cnn12` [I-215, 5-((2-cyclopropoxypyridin-3-yl)amino)-N-cyclopropyl-7-(methylamino) pyrazolo[1,5-a]pyrimidine-3-carboxamide], for which the 50% inhibitory concentration (IC50) in test [1] (setting [3]) was greater than 50000 nM; in test [2], less than 100 nM.
Regarding `[2H]C([2H])([2H])Oc1ncc(C)cc1Nc1cc(NC)n2ncc(C(=O)NC3CC3)c2n1` [I-258], the IC50 was greater than 50000 nM in test [1] (setting [3]) and less than 100 nM in test [2].
Turning to `CNc1cc(Nc2cccn(-c3cccnc3)c2=O)nc2c(C(=O)N[C@@H]3C[C@@H]3F)cnn12` [I-748], the IC50 in test [1] (setting [3]) is greater than 2500 nM; in test [2], less than 100 nM.
Consider `CNc1cc(Nc2cccn(-c3nc(C)c(C)s3)c2=O)nc2c(C(=O)N[C@H]3C[C@H]3F)cnn12` [I-292], for which the IC50 in test [1] (setting [3]) was greater than 2500 nM; in test [2], less than 100 nM.
Take `[2H]C([2H])([2H])Oc1ncccc1Nc1cc(NC)n2ncc(C(=O)N[C@H]3C[C@H](O)C3)c2n1` [I-321, N-((1r,3r)-3-hydroxycyclobutyl)-5-((2-(methoxy-d3)pyridin-3-yl)amino)-7-(methylamino)pyrazolo[1,5-a]pyrimidine-3-carboxamide]: the IC50 in test [1] (setting [3]) was greater than 2500 nM; in test [2], less than 100 nM.
`CNc1cc(Nc2cccn(-c3cnc(C(=O)N(C)C)cn3)c2=O)nc2c(C(=O)NC3CCC3)cnn12` [I-122]: the IC50 is greater than 2500 nM in test [1] (setting [3]) and less than 100 nM in test [2].
Take `CNc1cc(Nc2cccn(C[C@@H]3CCCCO3)c2=O)nc2c(C(=O)N[C@@H]3C[C@@H]3F)cnn12` [I-428]: the IC50 was greater than 50000 nM in test [1] (setting [3]) and less than 100 nM in test [2].
With `CNc1cc(Nc2cccnc2OC)nc2c(C(=O)N[C@@H]3CCC[C@H]3O)cnn12` [I-423, N-((1R,2R)-2-hydroxycyclopentyl)-5-((2-methoxypyridin-3-yl)amino)-7-(methylamino)pyrazolo[1,5-a]pyrimidine-3-carboxamide], the IC50 in test [1] (setting [3]) is greater than 50000 nM; in test [2] it was less than 100 nM.
Turning to `CNc1cc(Nc2cccn(-c3ccccn3)c2=O)nc2c(C(=O)N[C@@H]3CC[C@H]3OC)cnn12` [I-908, N-((1R,2R)-2-methoxycyclobutyl)-7-(methylamino)-5-((2-oxo-2H-[1,2′-bipyridin]-3-yl)amino)pyrazolo[1,5-a]pyrimidine-3-carboxamide], the IC50 was greater than 50000 nM in test [1] (read-out: PBMC_GMCSF_pSTAT5 IC50, human PBMC) and less than 100 nM in test [2].
Regarding `CNc1cc(Nc2cccn(-c3ccc(OC)cn3)c2=O)nc2c(C(=O)NC3CCC3)cnn12` [I-266], the IC50 was greater than 12500 nM in test [1] (setting [3]) and less than 100 nM in test [2].
Regarding `CNc1cc(Nc2cccn(-c3cnc(C(=O)N(C)C)cn3)c2=O)nc2c(C(=O)N[C@H]3C[C@H]3F)cnn12` [I-126], the IC50 was greater than 50000 nM in test [1] (setting [3]) and less than 100 nM in test [2].
Consider `CNc1cc(Nc2cccn(C3CCN(CCF)CC3)c2=O)nc2c(C(=O)N[C@H]3C[C@H]3F)cnn12` [I-570], for which the IC50 is greater than 50000 nM in test [1] (setting [3]) and less than 100 nM in test [2].
For `CNc1cc(-c2cn(C(C)C)c3ncccc23)nc2c(C(N)=O)cnn12` [I-222, 5-(1-isopropyl-1H-pyrrolo[2,3-b]pyridin-3-yl)-7-(methylamino)pyrazolo[1,5-a]pyrimidine-3-carboxamide] the same measures were greater than 2500 nM and less than 100 nM.
For `CNc1cc(Nc2cccc(N3CCCC3=O)n2)nc2c(C(N)=O)cnn12` [I-47] the same measures were greater than 300 nM and less than 100 nM.
Regarding `CNc1cc(Nc2cc(Cl)cn(C3CCCOC3)c2=O)nc2c(C(=O)N[C@H]3C[C@H]3F)cnn12` (some centres unmarked) [I-693], the results for the IC50 in test [1] (setting [3]) and in test [2] were greater than 50000 nM and less than 100 nM, respectively.
Regarding `CNc1cc(Nc2cccn(-c3ccn(C)n3)c2=O)nc2c(C(=O)NC3CCC3)cnn12` [I-139], the IC50 in test [1] (setting [3]) was greater than 50000 nM; in test [2], less than 100 nM.
Regarding `CNc1cc(Nc2cccn([C@H]3CC[C@H](OC)CC3)c2=O)nc2c(C(=O)N[C@H]3C[C@H]3F)cnn12` [I-344], the half-inhibitory concentration (IC50) in test [1] (setting [3]) is greater than 12500 nM; in test [2] it was less than 100 nM.
As for `CNc1cc(Nc2cc(Cl)cn(C3CCOCC3)c2=O)nc2c(C(=O)N[C@@H]3CC[C@H]3O)cnn12` [I-825], the IC50 in test [1] (setting [3]) is greater than 50000 nM; in test [2], less than 100 nM.
For `CNc1cc(Nc2cccnc2OC2CC2)nc2c(C(=O)N[C@H]3COC[C@H]3O)cnn12` [I-547] the same measures were greater than 50000 nM and 100 to 500 nM.
For `CNc1cc(Nc2cccc([C@H]3CCCOC3)n2)nc2c(C(=O)N[C@@H]3CC[C@H]3O)cnn12` [I-667] the same measures were greater than 12500 nM and less than 100 nM.
For `CNc1cc(Nc2cccn(C(C)C)c2=O)nc2c(C(=O)N[C@@H]3CC[C@H]3O)cnn12` [I-918] the same measures were greater than 50000 nM and less than 100 nM.
